For the assay, the target named is T1, human kidney renin (Homo sapiens, UniProt P00797).
T1 construct: Human renin was prepared from human kidney; from tissue; host or cells: human kidney
T1 sequence (P00797 67-406): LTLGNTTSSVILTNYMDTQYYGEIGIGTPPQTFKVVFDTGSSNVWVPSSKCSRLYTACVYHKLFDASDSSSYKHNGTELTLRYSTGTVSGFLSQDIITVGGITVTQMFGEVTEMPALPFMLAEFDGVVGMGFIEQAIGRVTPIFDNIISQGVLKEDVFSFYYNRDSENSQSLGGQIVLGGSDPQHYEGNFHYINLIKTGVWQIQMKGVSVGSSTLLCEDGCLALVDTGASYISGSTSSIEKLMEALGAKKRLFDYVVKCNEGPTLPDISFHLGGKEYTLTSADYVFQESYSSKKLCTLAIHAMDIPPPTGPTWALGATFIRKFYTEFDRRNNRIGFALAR
Nature of the assay: Radioimmunoassay screen for renin inhibitors (angiotensin I generation, then quantitation by radioimmunoassay). It counts as biochemical. The following applies: for IC50: human kidney renin, purified human plasma angiotensinogen, maleate buffer pH 6.0, 1 hour at 37° C., read-out: IC50 Molar Concentration. The protocol: Radioimmunoassay Screen For Renin Inhibitors
The in vitro method for the screening of anti-renin compounds involves, first, angiotensin I generation, and second, the quantitation of the angiotensin I produced by radioimmunoassay.
The incubation medium consisted of 20 μl of purified human plasma angiotensinogen (1); 40 μl of human kidney renin (2); 5 μl of phenylmethylsulfonyl fluoride; 10 μl of disodium EDTA (10 mM); 10 μl of antirenin compound (5×10^-3, 5×10^-4, 5×10^-5) in dimethylformamide, or ethanol and a suitable amount of maleate buffer (77mM, pH 6.0) to make a final volume of 500 μl. The reaction mixture was incubated for 1 hour at 37° C. and the enzymatic reaction was stopped by placing the tube in ice-cold water. The angiotension I generated during the incubation was measured by a radioimmunoassay plasma renin activity kit (Clinical Assays, Inc.).
Radioimmunoassay Procedure
The incubation medium consisted of either 100 μl aliquots of the above reaction mixture or a standard amount of angiotensin I; 1000 μl of phosphate buffer (100 mM, pH7.6) and 100 μl of (^125 I)angiotensin in a gamma-coat, tube. After three hours of incubation at room temperature, the tubes were decanted, and the radioactivity of each tube was determined in a gamma counter. Duplicate determinations were performed for each incubation. The results were expressed in ng of angiotensin I generated per ml of generation medium per hour of incubation (ng/AI/ml/hr), and the % of inhibition was obtained by the following: % inhibition= [formula]
The results of this test on representative compounds of this invention appear in Table I, expressed as an IC50.
(1) The human plasma angiotensinogen derived from the blood of a person receiving oral contraceptive pills was purified by chromatography on a pepstatin-aminohexyl-agarose column.
(2) Human renin was prepared from human kidney.

`CC(C)C[C@@H](C=O)NC(=O)C(NC(=O)[C@H](Cc1ccccc1)NC(=O)OCc1ccccc1)OC(C)C` (stereo partly drawn) [N-[(Phenylmethoxy)carbonyl]-L-phenylalanyl-N-(S)-1-formyl-3-methylbutyl]-L-2-(1-methylethoxy)glycinamide]: the IC50 turned out to be 10000 nM. Regarding `CC(C)COC(NC(=O)[C@H](Cc1ccccc1)NC(=O)OCc1ccccc1)C(=O)N[C@H](C=O)Cc1ccccc1` (stereo partly drawn) [N-[(Phenylmethoxy)carbonyl]-L-phenylalanyl-N-[(S)-1-formyl-2-phenylethyl]-L-2-(2-methylpropoxy)glycinamide], the “% Renin Inhibition” value came out at 66% (Molar Concentration 1 × 10^-4) and 59% (Molar Concentration 1 × 10^-5). The matching figures for `CC(C)CO[C@H](NC(=O)[C@H](Cc1ccccc1)NC(=O)OCc1ccccc1)C(=O)N[C@H](C=O)CC(C)C` [N-[(Phenylmethoxy)carbonyl]-L-phenylalanyl-N-[(S)-1-formyl-3-methylbutyl]-L-2-(2-methylpropoxy)glycinamide]: 70% and 50%.

Take `CC(C)COC(NC(=O)[C@H](Cc1ccccc1)NC(=O)OCc1ccccc1)C(=O)N[C@@H](CC1CCCCC1)[C@@H](O)c1nccs1` (stereo partly drawn) [N-[(Phenylmethoxy)carbonyl]-phenylalanyl-L-2-(2-methylpropox] [N-[(Phenylmethoxy)carbonyl]-L-phenylalanyl-L-2-(2-methylpropoxy)glycyl]-(1R,2S)-2-amino-3-cyclohexyl-1-(2-thiazolyl)propan-1-ol]: the IC50 was 87 nM. Regarding `CC(C)CO[C@@H](NC(=O)[C@H](Cc1ccccc1)NC(=O)OCc1ccccc1)C(=O)N[C@@H](Cc1ccccc1)[C@@H](O)c1nccs1` [N-[N-(Benzyloxycarbonyl)-L-phenylalanyl-D-2-(2-methylpropoxy)glycyl]-(S)2-amino-3-phenyl-(R)1-(2-thiazoly)propan-1-ol], the “% Renin Inhibition” value worked out at 74.6% (Molar Concentration 1 × 10^-4), 69.2% (Molar Concentration 1 × 10^-5) and 41.0% (Molar Concentration 1 × 10^-6). As to `CC(C)C[C@H](NC(=O)C(NC(=O)[C@H](Cc1ccccc1)NC(=O)OCc1ccccc1)OC(C)C)[C@@H](O)c1nccs1` (stereo partly drawn) [N-[N-(Benzyloxycarbonyl)-L-phenylalanyl-L-2-(1-methylethoxy)glycyl]-(S)2-amino-4-methyl-(R)1-(2-thiazolyl)pentan-1-ol], the IC50 is 280 nM. With `CC(C)COC(NC(=O)[C@H](Cc1ccccc1)NC(=O)OCc1ccccc1)C(=O)N[C@@H](CC(C)C)[C@@H](O)c1ncnn1C` (stereo partly drawn) [N-[N-(Benzyloxycarbonyl)-L-phenylalanyl-L-2-(2-methylpropoxy)glycl]-(S)2-amino-4-methyl(R)1-(1-methyl-1H-1,2,4-triazol-5-yl)pentan-1-ol], the “% Renin Inhibition” value (Molar Concentration 1 × 10^-4) is 32%. Regarding `CC(C)CO[C@H](NC(=O)[C@H](Cc1ccccc1)NC(=O)OCc1ccccc1)C(=O)N[C@@H](Cc1ccccc1)[C@@H](O)c1nccs1` [N-[N-(Benzyloxycarbonyl)-L-phenylalanyl-L-2-(2-methylpropxy)glycyl]-(S)2-amino-3-phenyl-(R)1-(2-thiazolyl)propan-1-ol], the IC50 stood at 470 nM. Also, the “% Renin Inhibition” value (Molar Concentration 1 × 10^-4) is on record as 85.0%. Besides, the “% Renin Inhibition” value (Molar Concentration 1 × 10^-5) was 84.6%. For the same compound, the “% Renin Inhibition” value (Molar Concentration 1 × 10^-6) worked out at 76.2%. As for `CC(C)C[C@H](NC(=O)C(NC(=O)[C@H](Cc1ccccc1)NC(=O)OCc1ccccc1)OC1CCCCC1)[C@@H](O)c1nccs1` (stereo partly drawn) [N-[N-(Benzyloxycarbonyl)-L-phenylalanyl-L-2-(cyclohexyloxy)glycyl]-(S)2-amino-4-methyl-(R)1-(2-thiazolyl)pentan-1-ol], the IC50 came out at 8500 nM. In the case of `CC(C)COC(NC(=O)OCc1ccccc1)C(=O)N[C@@H](CC1CCCCC1)[C@@H](O)c1ccccn1` (stereo partly drawn) [N-[N-(Phenylmethoxy)carbonyl-L-2-(2-methylpropoxy)glycyl]-(S)2-amino-3-cyclohexyl(R)1-(2-pyridinyl)propan-1-ol], the IC50 came out at 160 nM. On the same count and under the same terms, the same measure for `CC(C)OC(NC(=O)[C@H](Cc1ccccc1)NC(=O)OCc1ccccc1)C(=O)N[C@@H](CC1CCCCC1)[C@@H](O)c1nccs1` (stereo partly drawn) [N-[N-(Phenylmethoxy)carbonyl-L-phenylalanyl-D-2-(1-methyleth] [N-[N-[(phenylmethoxy)carbonyl-L-phenylalanyl-D-2-(1-methylethoxy)glycyl](S)2-amino-3-cyclohexyl-(R)1-(2-thiazolyl)propan-1-ol]: 8800 nM; for `CC(C)CO[C@@H](NC(=O)[C@H](Cc1ccccc1)NC(=O)OCc1ccccc1)C(=O)N[C@@H](CC1CCCCC1)[C@@H](O)c1ccccn1` [N-[N-(Phenylmethoxy)carbonyl-L-phenylalanyl-D-2-(2-methylpropoxy)glycyl]-(S)2-amino-3-cyclohexyl(R)1-(2-pyridinyl)propan-1-ol]: 29000 nM. For `CC(C)OC(NC(=O)[C@H](Cc1ccccc1)NC(=O)OCc1ccccc1)C(=O)N[C@@H](CC1CCCCC1)[C@@H](O)c1nccs1` (stereo partly drawn) [N-[N-(Phenylmethoxy)carbonyl-L-phenylalanyl-L-2-(1-methyleth] [N-[N-[(Phenylmethoxy)carbonyl-L-phenylalanyl-L-2-(1-methylethoxy)glycyl]-(S)2-amino-b 3-cyclohexyl-(R)1-(2-thiazolyl)propan-1-ol], the IC50 is 1 nM.

`CC(C)SC(NC(=O)[C@H](Cc1ccccc1)NC(=O)OCc1ccccc1)C(=O)N[C@@H](CC1CCCCC1)[C@@H](O)c1ccccn1` (stereo partly drawn) [N-[N-(Phenylmethoxy)carbonyl-L-phenylalanyl-L-2-(isopropylth] [N-[N-[(Phenylmethoxy)carbonyl]-L-phenylalanyl-L-2-(isopropylthio)glycyl]-(S)2-amino-3-cyclohexyl-(R)1-(2-pyridinyl)propan-1-ol]: the IC50 came to 46 nM. On the same count and under the same terms, the same measure for `CC(C)SC(NC(=O)[C@H](Cc1ccccc1)NC(=O)OCc1ccccc1)C(=O)N[C@@H](CC1CCCCC1)[C@@H](O)c1ccccn1` (stereo partly drawn) [N-[N-(phenylmethoxy)carbonyl-L-phenylalanyl-D-2-(isopropylth] [N-[N[(phenylmethoxy)carbonyl]-L-phenylalanyl-D-2-(isopropylthio)glycyl]-(S)2-amino-3-cyclohexyl-(R)1-(2-pyridinyl)-propan-1-ol]: 16000 nM. As for `CC(C)C[C@H](NC(=O)[C@H](Cc1ccccc1)NC(=O)OC(C)(C)C)C(=O)N[C@@H](CC(C)C)[C@@H](O)c1cccs1` [N-[N-(tert-Butoxycarbonyl)-L-phenylalanyl-L-leucyl]-(S)2-amino-4-methyl-(R)1-(2-thienyl)-pentan-1-ol], the IC50 is 4500 nM.

For the compound `CC(C)OC(NC(=O)[C@H](Cc1ccccc1)NC(=O)OCc1ccccc1)C(=O)N[C@@H](CC1CCCCC1)[C@@H](O)c1ccccn1` (stereo partly drawn) [N-[N-[ (Phenylmethoxy)carbonyl]-L-phenylalanyl-L-2-(1-methylethoxy)glycyl]-(S)2-amino-3-cyclohexyl-(R)1-(2-pyridinyl)propan-1-ol], the IC50 came out at 24 nM. On the same count and under the same terms, the same measure for `CC(C)C[C@H](NC(=O)C(NC(=O)[C@H](Cc1ccccc1)NC(=O)OCc1ccccc1)SC(C)C)[C@@H](O)c1nccs1` (stereo partly drawn) [N-[N-[(Phenylmethoxy)carbonyl-L-phenylalanyl-L-2-(isopropylthio)glycyl]-(S)2-amino-4-methyl-(R)1-(2-thiazaolyl)pentan-1-ol]: 14000 nM; for `CC(C)O[C@@H](NC(=O)[C@H](Cc1ccccc1)NC(=O)OCc1ccccc1)C(=O)N[C@@H](CC1CCCCC1)[C@@H](O)c1ccccn1` [N-[N-[(Phenylmethoxy)carbonyl]-L-phenylalanyl-D-2-(1-methylethoxy)glycyl]-(S)2-amino-3-cyclohexyl-(R)1-(2-pyridinyl)propan-1-ol]: 1000 nM. Regarding `CC(C)C[C@H](NC(=O)C(NC(=O)[C@H](Cc1ccccc1)NC(=O)OCc1ccccc1)SC(C)C)[C@@H](O)c1nccs1` (stereo partly drawn) [N-[N-[(phenylmethoxy)carbonyl]-L-phenylalanyl-D-2-(isopropylthio)glycyl]-(S)2-amino-4-methyl-(R)1-(2-thiazolyl)pentan-1-ol], where the note is “Molar Concentration 1 × 10^-4”, the “% Renin Inhibition” value is reported as 25%. As to `CC(C)C[C@H](NC(=O)[C@H](Cc1ccccc1)NC(=O)OC(C)(C)C)C(=O)N[C@@H](CC1CCCCC1)[C@@H](O)c1ccco1` [N-[N-tert-Butoxycarbonyl)-L-phenylalanyl-L-leucyl]-(S)2-amino-3-cyclohexyl-(R)1-(2-furanyl)propan-1-ol], the IC50 turned out to be 24 nM.

Values taken from US5106835A, “Renin inhibitors” (American Cyanamid Company, priority 1990, dated 1992).
